Measured values: patent US5998488A, “Ophthalmic composition” (Lion Corporation, priority 1994, dated 1999)

Experiments:
[1] = test system: E. coli, P. aeru, S. aureus, A. nigar, Candida; assay: Antimicrobial test (preservative effectiveness test, USP), microorganism type not specified; format: cell-based; settings: for Enhancement of antimicrobial activity (in words): solutions containing benzalkonium chloride, α-cyclodextrin, and EDTA-2Na, alone or in admixture
Experimental: Using bacteria Escherichia coli (E. coli), Pseudomonas aeruginosa (P. aeru), and Stapyrococcus aureus (S. aureus) and fungi Aspergillus nigar (A. nigar) and Candida albicans (Candida) as infectious microorganisms, a preservative effectiveness test was carried out according to the Pharmacopoeia of the United States.
++: microorganisms died within 5 days
+: microorganisms died in 6-10 days
-:microorganisms died in 11-15 days or over 15 days
Solutions were prepared in accordance with the formulation shown in Experiment 1 in a conventional manner as used in the preparation of eye drops while the amount of disodium ethylenediaminetetraacetate (EDTA-2Na) blended was in the range of 0.002 to 0.3%. The solutions were subject to the antimicrobial test of Experiment 3 and evaluated for antimicrobial activity according to the same criterion as above.
Solutions of the following formulation were prepared in a conventional manner as used in the preparation of eye drops.
The solutions were subject to the antimicrobial test of Experiment 3 and evaluated for antimicrobial activity according to the same criterion as above.
Solutions of the formulation shown in Table 7 were prepared to a total amount of 1,000 g in a conventional manner as used in the preparation of eye drops. […] The ophthalmic solutions were subject to the same tests as in Experiments 1 and 3. In the test of Experiment 3, the ophthalmic solutions were evaluated for antimicrobial activity according to the same criterion as before.

[2] = Benzalkonium chloride adsorption test (soft contact lenses, lens not given); format: physicochemical; settings: α-cyclodextrin replaced by the other cyclodextrin
Experimental: (§1) The percent inhibition of benzalkonium chloride adsorption to commercially available soft contact lenses was determined by the following test.
(§2) Benzalkonium chloride adsorption test A 30-ml vial was charged with 10 ml of the solution and a soft contact lens was immersed therein. In a constant temperature tank at 25° C., the vial was shaken for 24 hours. After the contact lens was removed from the vial, the concentration of benzalkonium chloride in the solution was quantitatively determined by high performance liquid chromatography. A percent inhibition of adsorption was calculated according to the following formula.
(§3) As a control, the above procedure was repeated except that no contact lens was immersed.
(§4) Inhibition of adsorption (%)=(concentration of benzalkonium chloride in sample solution)/(concentration of benzalkonium chloride in control solution)×100
Solutions of the formulation shown in Table 7 were prepared to a total amount of 1,000 g in a conventional manner as used in the preparation of eye drops. Ophthalmic solutions of Examples 2 to 13 were obtained. The ophthalmic solutions were subject to the same tests as in Experiments 1 and 3. In the test of Experiment 3, the ophthalmic solutions were evaluated for antimicrobial activity according to the same criterion as before.

[3] = Benzalkonium chloride adsorption test (soft contact lens Seequence); format: physicochemical; settings: α-cyclodextrin 0%; benzalkonium chloride 0.01%; 25° C., 24 hours
Experimental: (§5) A test was conducted to examine the inhibition of benzalkonium chloride adsorption to soft contact lenses. Solutions of the following formulation were prepared in a conventional manner as used in the preparation of eye drops.
as §1, §2, §3, §4
(§6) Note that Seequence, Nichicon Soft and Menicon Soft are trademarks of soft contact lenses commercially available from Bausch & Lomb, Nihon Contact K.K., and Menicon K.K., respectively.

[4] = Benzalkonium chloride adsorption test (soft contact lens Nichicon Soft μ); format: physicochemical; settings: α-cyclodextrin 0%; benzalkonium chloride 0.01%; 25° C., 24 hours
Experimental: as §5, §1, §2, §3, §4, §6

[5] = Benzalkonium chloride adsorption test (soft contact lens Menicon Soft 72); format: physicochemical; settings: α-cyclodextrin 0%; benzalkonium chloride 0.01%; 25° C., 24 hours
Experimental: as §5, §1, §2, §3, §4, §6

Compound: O=C([O-])CN(CCN(CC(=O)O)CC(=O)O)CC(=O)[O-].[Na+].[Na+] [EDTA-2Na, disodium ethylenediaminetetraacetate]
- Effect on lowering of antimicrobial activity by α-cyclodextrin (in words) ([1]; 0.01 to 1.0% of α-cyclodextrin, remarkable at EDTA-2Na at least 0.006%): prevents a lowering of antimicrobial activity
- Antimicrobial activity ([1]; EDTA-2Na 0.002%, α-cyclodextrin 0.01%): + (microorganisms died in 6-10 days)
- Antimicrobial activity ([1]; EDTA-2Na 0.002%, α-cyclodextrin 0.03%): - (microorganisms died in 11-15 days or over 15 days)
- Antimicrobial activity ([1]; EDTA-2Na 0.002%, α-cyclodextrin 0.05%): - (microorganisms died in 11-15 days or over 15 days)
- Antimicrobial activity ([1]; EDTA-2Na 0.002%, α-cyclodextrin 0.1%): - (microorganisms died in 11-15 days or over 15 days)
- Antimicrobial activity ([1]; EDTA-2Na 0.002%, α-cyclodextrin 0.3%): - (microorganisms died in 11-15 days or over 15 days)
- Antimicrobial activity ([1]; EDTA-2Na 0.002%, α-cyclodextrin 0.5%): - (microorganisms died in 11-15 days or over 15 days)
- Antimicrobial activity ([1]; EDTA-2Na 0.002%, α-cyclodextrin 1.0%): - (microorganisms died in 11-15 days or over 15 days)
- Antimicrobial activity ([1]; EDTA-2Na 0.004%, α-cyclodextrin 0.01%): + (microorganisms died in 6-10 days)
- Antimicrobial activity ([1]; EDTA-2Na 0.004%, α-cyclodextrin 0.03%): - (microorganisms died in 11-15 days or over 15 days)
- Antimicrobial activity ([1]; EDTA-2Na 0.004%, α-cyclodextrin 0.05%): - (microorganisms died in 11-15 days or over 15 days)
- Antimicrobial activity ([1]; EDTA-2Na 0.004%, α-cyclodextrin 0.1%): - (microorganisms died in 11-15 days or over 15 days)
- Antimicrobial activity ([1]; EDTA-2Na 0.004%, α-cyclodextrin 0.3%): - (microorganisms died in 11-15 days or over 15 days)
- Antimicrobial activity ([1]; EDTA-2Na 0.004%, α-cyclodextrin 0.5%): - (microorganisms died in 11-15 days or over 15 days)
- Antimicrobial activity ([1]; EDTA-2Na 0.004%, α-cyclodextrin 1.0%): - (microorganisms died in 11-15 days or over 15 days)
- Antimicrobial activity ([1]; EDTA-2Na 0.006%, α-cyclodextrin 0.01%): + (microorganisms died in 6-10 days)
- Antimicrobial activity ([1]; EDTA-2Na 0.006%, α-cyclodextrin 0.03%): + (microorganisms died in 6-10 days)
- Antimicrobial activity ([1]; EDTA-2Na 0.006%, α-cyclodextrin 0.05%): + (microorganisms died in 6-10 days)
- Antimicrobial activity ([1]; EDTA-2Na 0.006%, α-cyclodextrin 0.1%): + (microorganisms died in 6-10 days)
- Antimicrobial activity ([1]; EDTA-2Na 0.006%, α-cyclodextrin 0.3%): + (microorganisms died in 6-10 days)
- Antimicrobial activity ([1]; EDTA-2Na 0.006%, α-cyclodextrin 0.5%): + (microorganisms died in 6-10 days)
- Antimicrobial activity ([1]; EDTA-2Na 0.006%, α-cyclodextrin 1.0%): + (microorganisms died in 6-10 days)
- Antimicrobial activity ([1]; EDTA-2Na 0.01%, α-cyclodextrin 0.01%): + (microorganisms died in 6-10 days)
- Antimicrobial activity ([1]; EDTA-2Na 0.01%, α-cyclodextrin 0.03%): + (microorganisms died in 6-10 days)
- Antimicrobial activity ([1]; EDTA-2Na 0.01%, α-cyclodextrin 0.05%): + (microorganisms died in 6-10 days)
- Antimicrobial activity ([1]; EDTA-2Na 0.01%, α-cyclodextrin 0.1%): + (microorganisms died in 6-10 days)
- Antimicrobial activity ([1]; EDTA-2Na 0.01%, α-cyclodextrin 0.3%): + (microorganisms died in 6-10 days)
- Antimicrobial activity ([1]; EDTA-2Na 0.01%, α-cyclodextrin 0.5%): + (microorganisms died in 6-10 days)
- Antimicrobial activity ([1]; EDTA-2Na 0.01%, α-cyclodextrin 1.0%): + (microorganisms died in 6-10 days)
- Antimicrobial activity ([1]; EDTA-2Na 0.05%, α-cyclodextrin 0.01%): + (microorganisms died in 6-10 days)
- Antimicrobial activity ([1]; EDTA-2Na 0.05%, α-cyclodextrin 0.03%): + (microorganisms died in 6-10 days)
- Antimicrobial activity ([1]; EDTA-2Na 0.05%, α-cyclodextrin 0.05%): + (microorganisms died in 6-10 days)
- Antimicrobial activity ([1]; EDTA-2Na 0.05%, α-cyclodextrin 0.1%): + (microorganisms died in 6-10 days)
- Antimicrobial activity ([1]; EDTA-2Na 0.05%, α-cyclodextrin 0.3%): + (microorganisms died in 6-10 days)
- Antimicrobial activity ([1]; EDTA-2Na 0.05%, α-cyclodextrin 0.5%): + (microorganisms died in 6-10 days)
- Antimicrobial activity ([1]; EDTA-2Na 0.05%, α-cyclodextrin 1.0%): + (microorganisms died in 6-10 days)
- Antimicrobial activity ([1]; EDTA-2Na 0.1%, α-cyclodextrin 0.01%): + (microorganisms died in 6-10 days)
- Antimicrobial activity ([1]; EDTA-2Na 0.1%, α-cyclodextrin 0.03%): + (microorganisms died in 6-10 days)
- Antimicrobial activity ([1]; EDTA-2Na 0.1%, α-cyclodextrin 0.05%): + (microorganisms died in 6-10 days)
- Antimicrobial activity ([1]; EDTA-2Na 0.1%, α-cyclodextrin 0.1%): + (microorganisms died in 6-10 days)
- Antimicrobial activity ([1]; EDTA-2Na 0.1%, α-cyclodextrin 0.3%): + (microorganisms died in 6-10 days)
- Antimicrobial activity ([1]; EDTA-2Na 0.1%, α-cyclodextrin 0.5%): + (microorganisms died in 6-10 days)
- Antimicrobial activity ([1]; EDTA-2Na 0.1%, α-cyclodextrin 1.0%): + (microorganisms died in 6-10 days)
- Antimicrobial activity ([1]; EDTA-2Na 0.3%, α-cyclodextrin 0.01%): + (microorganisms died in 6-10 days)
- Antimicrobial activity ([1]; EDTA-2Na 0.3%, α-cyclodextrin 0.03%): + (microorganisms died in 6-10 days)
- Antimicrobial activity ([1]; EDTA-2Na 0.3%, α-cyclodextrin 0.05%): + (microorganisms died in 6-10 days)
- Antimicrobial activity ([1]; EDTA-2Na 0.3%, α-cyclodextrin 0.1%): + (microorganisms died in 6-10 days)
- Antimicrobial activity ([1]; EDTA-2Na 0.3%, α-cyclodextrin 0.3%): + (microorganisms died in 6-10 days)
- Antimicrobial activity ([1]; EDTA-2Na 0.3%, α-cyclodextrin 0.5%): + (microorganisms died in 6-10 days)
- Antimicrobial activity ([1]; EDTA-2Na 0.3%, α-cyclodextrin 1.0%): + (microorganisms died in 6-10 days)

Compound: OC[C@H]1O[C@@H]2O[C@H]3[C@H](O)[C@@H](O)[C@@H](O[C@H]4[C@H](O)[C@@H](O)[C@@H](O[C@H]5[C@H](O)[C@@H](O)[C@@H](O[C@H]6[C@H](O)[C@@H](O)[C@@H](O[C@H]7[C@H](O)[C@@H](O)[C@@H](O[C@H]8[C@H](O)[C@@H](O)[C@@H](O[C@H]9[C@H](O)[C@@H](O)[C@@H](O[C@H]1[C@H](O)[C@H]2O)O[C@@H]9CO)O[C@@H]8CO)O[C@@H]7CO)O[C@@H]6CO)O[C@@H]5CO)O[C@@H]4CO)O[C@@H]3CO [γ-cyclodextrin]
- Inhibition of adsorption, cyclodextrin in place of α-cyclodextrin (in words) [2]: Approximately equivalent results

Compound: O=BOB(O)OB(O)OB=O [Borax]
- Antimicrobial activity ([1]; boric acid 0%, borax 0.01%, about pH 7.2): + (microorganisms died in 6-10 days)
- Antimicrobial activity ([1]; boric acid 0%, borax 0.02%, about pH 7.2): + (microorganisms died in 6-10 days)
- Antimicrobial activity ([1]; boric acid 0%, borax 0.04%, about pH 7.2): + (microorganisms died in 6-10 days)
- Antimicrobial activity ([1]; boric acid 0%, borax 0.06%, about pH 7.2): + (microorganisms died in 6-10 days)
- Antimicrobial activity ([1]; boric acid 0%, borax 0.08%, about pH 7.2): + (microorganisms died in 6-10 days)
- Antimicrobial activity ([1]; boric acid 0%, borax 0.1%, about pH 7.2): + (microorganisms died in 6-10 days)
- Antimicrobial activity ([1]; boric acid 0%, borax 0.15%, about pH 7.2): ++ (microorganisms died within 5 days)
- Enhancement of antimicrobial activity (in words) [1]: effective for enhancing the antimicrobial activity

Compound: benzalkonium chloride [reference compound]
- Antimicrobial activity ([1]; boric acid 0%, borax 0%, EDTA-2Na 0.006%, α-cyclodextrin 0.03%, about pH 7.2): + (microorganisms died in 6-10 days)
- Inhibition of adsorption [3]: 65%
- Inhibition of adsorption [4]: 60%
- Inhibition of adsorption [5]: 65%

Compound: OB(O)O [Boric acid]
- Antimicrobial activity ([1]; boric acid 0.05%, borax 0%, about pH 7.2): + (microorganisms died in 6-10 days)
- Antimicrobial activity ([1]; boric acid 0.1%, borax 0%, about pH 7.2): ++ (microorganisms died within 5 days)
- Antimicrobial activity ([1]; boric acid 0.2%, borax 0%, about pH 7.2): ++ (microorganisms died within 5 days)
- Antimicrobial activity ([1]; boric acid 0.4%, borax 0%, about pH 7.2): ++ (microorganisms died within 5 days)
- Antimicrobial activity ([1]; boric acid 0.6%, borax 0%, about pH 7.2): ++ (microorganisms died within 5 days)
- Antimicrobial activity ([1]; boric acid 0.8%, borax 0%, about pH 7.2): ++ (microorganisms died within 5 days)
- Antimicrobial activity ([1]; boric acid 1.0%, borax 0%, about pH 7.2): ++ (microorganisms died within 5 days)
- Enhancement of antimicrobial activity (in words) [1]: effective for enhancing the antimicrobial activity

Compound: methylated cyclodextrin
- Inhibition of adsorption, cyclodextrin in place of α-cyclodextrin (in words) [2]: Approximately equivalent results
